Experimental data as given in US7112590B2, “Thrombin inhibitors” (LEK Pharmaceuticals d.d., priority 2000, dated 2006).

Biological target: T1, trypsin (UniProt P00760)
T1 construct: Trypsin (6000 E/mg prot; Sigma): dissolved in distilled water to give a stock solution of 300 E/mL
T1 sequence (P00760 1-246): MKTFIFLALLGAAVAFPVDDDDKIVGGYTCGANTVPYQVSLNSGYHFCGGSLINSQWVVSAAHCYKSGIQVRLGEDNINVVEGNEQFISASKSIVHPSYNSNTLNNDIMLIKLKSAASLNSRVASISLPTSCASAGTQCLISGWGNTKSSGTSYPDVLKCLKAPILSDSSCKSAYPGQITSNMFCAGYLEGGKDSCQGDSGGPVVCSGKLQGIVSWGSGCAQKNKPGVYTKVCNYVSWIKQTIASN
Assay: Determination of trypsin Ki (chromogenic substrate S-2222)
Assay type: biochemical
Conditions: substrate S-2222, pH 7.5, 25° C.
Description: The enzyme inhibitory effect of the compounds can be identified by determination of inhibition constant Ki. It denotes the degree of dissociation of the enzyme-inhibitor complex. Low dissociation constant means high potency of inhibitor. Ki can be determined during reaction of the enzyme with a specific chromogenic substrate which under hydrolysis by the enzyme develops color. Reaction in time is recorded by spectrophotometry and Ki is calculated from kinetic parameters (Vmax, Km, reaction rate).
2. Determination of Trypsin Ki
The ability of a compound to act as an inhibitor of trypsin catalytic activity was assessed by determination of Ki.
Buffer: HBSA, pH 7.5 (10 mM Hepes, 150 mM NaCl, 0.1% w/v bovine serum albumin)
Substrate (S-2222: N-benzoyl-Ile-Glu-Gly-Arg-pNA HCl, 25 mg; Chromogenix): dissolved in distilled water to 2 mM concentration. (Km is 21 μM)
Trypsin (6000 E/mg prot.; Sigma): dissolved in distilled water to give a stock solution of 300 E/mL.
Inhibitors: were dissolved in DMSO (10 mM stock solution) and diluted with distilled water to working solution (the highest final concentration of DMSO was 10%).
50 μL of buffer, 50 μL of test compound in water (final concentrations from 50 to 300 μM) and 50 μL of trypsin (3 mE/mL f.c.) were incubated for 15 minutes at room temperature. The reaction was started with 50 μL of S-2222 (50 μM or 100 μM f.c.) and the absorbance of each sample at 405 nm (at 25° C.) was measured in triplicates every 10 seconds for a period of 15 minutes using a microtiter plate reader (Tecan Sunrise).
Trypsin activity was determined from the change in absorbance in the linear part of velocity graph. Ki was calculated according to Cheng and Prussof (Biochem Pharmacol, 1973) where Ki is, IC50/(1+S/Km). The Km for the substrate was determined under test conditions with at least 6 substrate concentrations varying around Km and calculated with the non-linear regression program Curve expert.

Ki | Compound
217 µM | NC(C(=O)N1CCCC1C(=O)NCC1CCc2n[nH]cc2C1)C(c1ccccc1)c1ccccc1 (stereo not shown)

Test system: not given
Assay: not given
Conditions: not given

Compound | melting point
CC(C)(C)OC(=O)N[C@@H](C(=O)N1CCC[C@H]1C(=O)NC1CCc2n[nH]cc2C1)C(c1ccccc1)c1ccccc1 (stereo partly drawn) [Example 55, tert-Butyl (1R)-1-benzhydryl-2-oxo-2-{(2S)-2-[(4,5,6,7-tetrahydro-2H-indazol-5-ylamino)carbonyl]pyrrolidinyl}ethylcarbamate] | 119 to 122 °C
CC(C)(C)OC(=O)N[C@H](Cc1ccc(Cl)c(Cl)c1)C(=O)N1CCC[C@H]1C(=O)NCC1CCc2n[nH]cc2C1 (stereo partly drawn) [Example 59, tert-Butyl (1R)-1-(3,4-dichlorobenzyl)-2-oxo-2-((2S)-2-{[(4,5,6,7-tetrahydro-2H-indazol-5-ylmethyl)amino]carbonyl}pyrrolidinyl)ethylcarbamate] | 100 to 103 °C
CC(C)(C)OC(=O)N[C@@H](C(=O)N1CCC[C@H]1C(=O)NCC1CCc2n[nH]cc2C1)C(c1ccccc1)c1ccccc1 (stereo partly drawn) [Example 64, tert-Butyl (1R)-1-benzhydryl-2-oxo-2-((2S)-2-{[(4,5,6,7-tetrahydro-2H-indazol-5-ylmethyl)amino]carbonyl}pyrrolidinyl)ethylcarbamate] | 113 to 116 °C
CC(C)(C)OC(=O)N[C@@H](C(=O)N1CCC[C@H]1C(=O)NCC1CCc2nc(N)ncc2C1)C(c1ccccc1)c1ccccc1 (stereo partly drawn) [Example 67, tert-Butyl (1R)-2-[(2S)-2-({[(2-amino-5,6,7,8-tetrahydro-6-quinazolinyl)methyl]amino}carbonyl)pyrrolidinyl]-1-benzhydryl-2-oxoethylcarbamate] | 127 to 130 °C
Nc1nc2c(s1)CC(CNC(=O)[C@@H]1CCCN1C(=O)[C@@H](CC1CCCCC1)NS(=O)(=O)Cc1ccccc1)CC2 (stereo partly drawn) [Example 69, (2S)-N-[(2-Amino-4,5,6,7-tetrahydro-1,3-benzothiazol-6-yl)methyl]-1-{(2R)-2-[(benzylsulfonyl)amino]-3-cyclohexylpropanoyl}-2-pyrrolidinecarboxamide] | 203 to 205 °C
CC(C)(C)OC(=O)CN(C(=O)OC(C)(C)C)[C@H](CC1CCCCC1)C(=O)N1CCC[C@H]1C(=O)NC1CCc2nc(N)sc2C1 (stereo partly drawn) [Example 70, tert-Butyl 2-[[(1R)-2-((2S)-2-{[(2-amino-4,5,6,7-tetrahydro-1,3-benzothiazol-6-yl)amino]carbonyl}pyrrolidinyl)-1-(cyclohexylmethyl)-2-oxoethyl](tert-butoxycarbonyl)amino]acetate] | 95 to 101 °C

Next, values leading:

melting point | Compound
127 to 130 °C | Nc1nc2ccc(NC(=O)CNC(=O)[C@@H](Cc3ccccc3)NS(=O)(=O)Cc3ccccc3)cc2s1 [Example 39, (2R)-N-{2-[(2-Amino-1,3-benzothiazol-6-yl)amino]-2-oxoethyl}-2-[(benzylsulfonyl)amino]-3-phenylpropanamide]
> 250 °C | Nc1ncnc2ccc(NC(=O)[C@@H]3CCCN3C(=O)CNC(c3ccccc3)(c3ccccc3)c3ccccc3)cc12 [Example 42, (2S)-N-(4-amino-6-quinazolinyl)-1-{2-[(triphenylmethyl)amino]acetyl}-2-pyrrolidinecarboxamide]
118 to 121 °C | Nc1ncc2c(n1)CCC(CNC(=O)[C@@H]1CCCN1C(=O)[C@@H](CC1CCCCC1)NS(=O)(=O)Cc1ccccc1)C2 (stereo partly drawn) [Example 57, (2S)-N-[(2-Amino-5,6,7,8-tetrahydro-6-quinazolinyl)methyl]-1-{(2R)-2-[(benzylsulfonyl)amino]-3-cyclohexylpropanoyl}-2-pyrrolidinecarboxamide]
100 to 103 °C | O=C(NCC1CCc2n[nH]cc2C1)[C@@H]1CCCN1C(=O)[C@@H](CC1CCCCC1)NS(=O)(=O)Cc1ccccc1 (stereo partly drawn) [Example 58, (2S)-1-{(2R)-2-[(Benzylsulfonyl)amino]-3-cyclohexylpropanoyl}-N-(4,5,6,7-tetrahydro-2H-indazol-5-ylmethyl)-2-pyrrolidinecarboxamide]
110 to 113 °C | CC(C)(C)OC(=O)N[C@H](Cc1ccc(Cl)c(Cl)c1)C(=O)N1CCC[C@H]1C(=O)NCC1CCc2nc(N)ncc2C1 (stereo partly drawn) [Example 61, tert-Butyl (1R)-2-[(2S)-2-({[(2-amino-5,6,7,8-tetrahydro-6-quinazolinyl)methyl]amino}carbonyl)pyrrolidinyl]1-(3,4dichlorobenzyl)-2-oxoethylcarbamate]
106 to 109 °C | O=C(NC1CCc2c[nH]cc2C1)[C@@H]1CCCN1C(=O)[C@@H](CC1CCCCC1)NS(=O)(=O)Cc1ccccc1 (stereo partly drawn) [Example 63, (2S)-1-{(2R)-2-[(Benzylsulfonyl)amino]-3-cyclohexylpropanoyl}-N-(4,5,6,7-tetrahydro-2H-isoindol-5-yl)-2-pyrrolidinecarboxamide]
